Measured values taken from patent publication US8742117B2, “Oxime derivatives” (Cadila Healthcare Limited, priority 2008, dated 2014).

How the values were obtained:
Sprague Dawley rats = experiment: Feed intake in Sprague Dawley rats; assay type: in vivo, rat; conditions: 25 mg/kg i.p., cumulative feed intake vs vehicle control
Description: In Vivo Efficacy Studies: Feed Intake in Sprague Dawley Rats:
Sprague Dawley rats of 6-8 week age were be used for this experiment they were be kept for acclimatization in reversed light/dark cycle for 15 days. Animals will have free access to a standard chow diet and water during acclimatization period. After 15 days reversed light/dark cycle acclimatization animals were trained for fasting induced feed intake for 5 days till they show consistent feed intake. Grouping was done based on the monitored feed intake the training days. On treatment day each group of animals were dosed with test compound or vehicle by appropriate routes of administration (orally or intraperitoneally). Exactly 30 min. after treatment, measured amount of standard chow diet was provided and recorded as 0-min feed offered. Then subsequently 2, 4, 6 and 24 hour after 0-min, feed intake was measured and the cumulative feed intakes were calculated. The change in cumulative feed intake as compare to vehicle treated control at each time point was calculated for test compound and results were provided in table 2

human GPR 119 receptor = biological target: T1, human GPR 119 receptor (Homo sapiens, UniProt Q8TDV5); experiment: cAMP assay in stable cell line expressing recombinant human GPR 119 receptor; assay type: cell-based; conditions: intracellular cAMP, recombinant human GPR 119 cell line
T1 construct: expressed in transfected cells
T1 sequence (Q8TDV5 1-335): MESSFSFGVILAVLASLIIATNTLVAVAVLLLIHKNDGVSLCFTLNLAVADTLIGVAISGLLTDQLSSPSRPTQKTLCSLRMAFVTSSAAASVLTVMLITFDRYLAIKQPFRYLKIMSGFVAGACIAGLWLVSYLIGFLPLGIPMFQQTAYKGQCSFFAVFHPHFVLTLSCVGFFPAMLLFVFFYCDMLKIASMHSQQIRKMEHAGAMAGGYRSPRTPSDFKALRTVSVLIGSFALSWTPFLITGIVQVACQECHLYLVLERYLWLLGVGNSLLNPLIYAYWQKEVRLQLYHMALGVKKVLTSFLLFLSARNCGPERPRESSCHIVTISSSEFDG
Description: A stable cell line expressing recombinant human GPR 119 receptor was established and used to investigate the efficacy of the compounds of the invention based on the intracellular levels of cyclic AMP (cAMP) using commercially available cAMP kits. Compounds of the invention produced a concentration dependent increase in cAMP level and EC50 values of representative compounds were provided in table 1 and table 2 respectively.

SMILES | % activity at 1 μM (human GPR 119 receptor) [%] | further results
CC(=NOc1ncnc(N2CCC(c3nc(C(C)C)no3)CC2)c1[N+](=O)[O-])c1cccnc1 [Example 10, 1-(pyridin-3-yl)ethanone O-6-(4-(3-isopropyl-1,2,4-oxadiazol-5-yl)piperidin-1-yl)-5-nitropyrimidin-4-yl oxime] | 31.37 | % reduction in food in take 2 hour (Sprague Dawley rats): 38%; % reduction in food in take 4 hour (Sprague Dawley rats): 31%; % reduction in food in take 6 hour (Sprague Dawley rats): 25.4%; % reduction in food in take 24 hour (Sprague Dawley rats): 10%
CC(=NOc1ncnc(N2CCC(c3nc(C(C)C)no3)CC2)c1C)c1ccc(-c2ccccc2)cc1 [Example 24, 1-(biphenyl-4-yl)ethanone O-6-(4-(3-isopropyl-1,2,4-oxadiazol-5-yl)piperidin-1-yl)-5-methylpyrimidin-4-yl oxime] | 8.7 | –
CC(=NOc1ncnc(N2CCC(c3nc(C(C)C)no3)CC2)c1[N+](=O)[O-])c1cc2ccccc2o1 [Example 1, 1-(benzofuran-2-yl)ethanone O-6-(4-(3-isopropyl-1,2,4-oxadiazol-5-yl)piperidin-1-yl)-5-nitropyrimidin-4-yl oxime] | 62.46 | EC50 (human GPR 119 receptor): 802 nM
CC(=NOc1ncnc(N2CCC(c3nc(C(C)C)no3)CC2)c1C)c1ccc2c(c1)OCO2 [Example 5, 1-(benzo[d][1,3]dioxol-5-yl)ethanone O-6-(4-(3-isopropyl-1,2,4-oxadiazol-5-yl)piperidin-1-yl)-5-methylpyrimidin-4-yl oxime] | 58.37 | % reduction in food in take 2 hour (Sprague Dawley rats): 39%; % reduction in food in take 4 hour (Sprague Dawley rats): 40%; % reduction in food in take 6 hour (Sprague Dawley rats): 31%; % reduction in food in take 24 hour (Sprague Dawley rats): 8.2%
CC(=NOc1ncnc(N2CCC(c3nc(C(C)C)no3)CC2)c1C)c1ccc(S(C)(=O)=O)cc1 [Example 3, 1-(4-(methylsulfonyl)phenyl)ethanone O-6-(4-(3-isopropyl-1,2,4-oxadiazol-5-yl)piperidin-1-yl)-5-methylpyrimidin-4-yl oxime] | 73.40 | –
CC(C)c1noc(C2CCN(c3ncnc(ON=C(c4ccc(F)cc4)c4ccc(F)cc4)c3[N+](=O)[O-])CC2)n1 [Example 31, bis(4-fluorophenyl)methanone O-6-(4-(3-isopropyl-1,2,4-oxadiazol-5-yl)piperidin-1-yl)-5-nitropyrimidin-4-yl oxime] | 12.18 | –
CCCCC(=NOc1ncnc(N2CCC(c3nc(C(C)C)no3)CC2)c1C)c1ccccc1 [Example 30, 1-phenylpentan-1-one O-6-(4-(3-isopropyl-1,2,4-oxadiazol-5-yl)piperidin-1-yl)-5-methylpyrimidin-4-yl oxime] | 24.65 | –
CCCCC(=NOc1ncnc(N2CCC(c3nc(C(C)C)no3)CC2)c1[N+](=O)[O-])c1ccccc1 [Example 26, 1-phenylpentan-1-one O-6-(4-(3-isopropyl-1,2,4-oxadiazol-5-yl)piperidin-1-yl)-5-nitropyrimidin-4-yloxime] | 10.2 | –
CC(=NOc1ncnc(N2CCC(c3nc(C(C)C)no3)CC2)c1C)c1ccccc1 [Example 32, Acetophenone O-6-(4-(3-isopropyl-1,2,4-oxadiazol-5-yl)piperidin-1-yl)-5-methylpyrimidin-4-yloxime] | 32.16 | –
CC(C)c1noc(C2CCN(c3ncnc(ON=C(c4ccccc4)c4ccccc4)c3[N+](=O)[O-])CC2)n1 [Example 21, Benzophenone O-6-(4-(3-isopropyl-1,2,4-oxadiazol-5-yl)piperidin-1-yl)-5-nitropyrimidin-4-yl oxime] | 19.43 | –
Cc1c(ON=C(c2ccc(F)cc2)c2ccc(F)cc2)ncnc1N1CCC(c2nc(C(C)C)no2)CC1 [Example 29, bis(4-fluorophenyl)methanone O-6-(4-(3-isopropyl-1,2,4-oxadiazol-5-yl)piperidin-1-yl)-5-methylpyrimidin-4-yl oxime] | 13.7 | –
CC(=NOc1ncnc(N2CCC(c3nc(C(C)C)no3)CC2)c1[N+](=O)[O-])c1ccc(OC(F)(F)F)cc1 [Example 13, 1-(4-(trifluoromethoxy)phenyl)ethanone O-6-(4-(3-isopropyl-1,2,4-oxadiazol-5-yl)piperidin-1-yl)-5-nitropyrimidin-4-yl oxime] | 93.76 | EC50 (human GPR 119 receptor): 242 nM
CC(=NOc1ncnc(N2CCC(c3nc(C(C)C)no3)CC2)c1[N+](=O)[O-])c1ccc(C)cc1 [Example 2, 1-p-tolylethanone O-6-(4-(3-isopropyl-1,2,4-oxadiazol-5-yl)piperidin-1-yl)-5-nitropyrimidin-4-yl oxime] | 37.75 | –
CC(=NOc1ncnc(N2CCC(c3nc(C(C)C)no3)CC2)c1[N+](=O)[O-])c1cccs1 [Example 28, 1-(thiophen-2-yl)ethanone O-6-(4-(3-isopropyl-1,2,4-oxadiazol-5-yl)piperidin-1-yl)-5-nitropyrimidin-4-yl oxime] | 33.4 | –
Cc1c(ON=C(c2ccccc2)c2ccccc2)ncnc1N1CCC(c2nc(C(C)C)no2)CC1 [Example 20, Benzophenone O-6-(4-(3-isopropyl-1,2,4-oxadiazol-5-yl)piperidin-1-yl)-5-methylpyrimidin-4-yl oxime] | 24.55 | –
CC(=NOc1ncnc(N2CCC(c3nc(C(C)C)no3)CC2)c1C)c1ccc2c(c1)CCCC2 [Example 17, 1-(5,6,7,8-tetrahydronaphthalen-2-yl)ethanone O-6-(4-(3-isopropyl-1,2,4-oxadiazol-5-yl)piperidin-1-yl)-5-methylpyrimidin-4-yl oxime] | 29.24 | –
CC(=NOc1ncnc(N2CCC(c3nc(C(C)C)no3)CC2)c1C)c1cc2ccccc2o1 [Example 19, 1-(benzofuran-2-yl)ethanone O-6-(4-(3-isopropyl-1,2,4-oxadiazol-5-yl)piperidin-1-yl)-5-methylpyrimidin-4-yl oxime] | 40.68 | –
CC(=NOc1ncnc(N2CCC(c3nc(C(C)C)no3)CC2)c1[N+](=O)[O-])c1ccc(-c2ccccc2)cc1 [Example 25, 1-(biphenyl-4-yl)ethanone O-6-(4-(3-isopropyl-1,2,4-oxadiazol-5-yl)piperidin-1-yl)-5-nitropyrimidin-4-yl oxime] | 32.0 | –
CC(=NOc1ncnc(N2CCC(c3nc(C(C)C)no3)CC2)c1C)c1cccnc1 [Example 12, 1-(pyridin-3-yl)ethanone O-6-(4-(3-isopropyl-1,2,4-oxadiazol-5-yl)piperidin-1-yl)-5-methylpyrimidin-4-yl oxime] | 20.32 | –
CC(=NOc1ncnc(N2CCC(c3nc(C(C)C)no3)CC2)c1[N+](=O)[O-])c1ccccc1 [Example 33, Acetophenone O-6-(4-(3-isopropyl-1,2,4-oxadiazol-5-yl)piperidin-1-yl)-5-nitropyrimidin-4-yl oxime] | 59.34 | –
CC(=NOc1ncnc(N2CCC(c3nc(C(C)C)no3)CC2)c1[N+](=O)[O-])c1ccc2c(c1)CCCC2 [Example 18, 1-(5,6,7,8-tetrahydronaphthalen-2-yl)ethanone O-6-(4-(3-isopropyl-1,2,4-oxadiazol-5-yl)piperidin-1-yl)-5-nitropyrimidin-4-yl oxime] | 31.37 | –
